Assay results as given in the supplement of paper PMC10307832.

Experiments:
Assay in all cases: relative viability (nuclei count vs DMSO), 5 days (fraction); higher = more cells survive
[1] = compound: CCN(CC)CCNC(=O)c1c(C)[nH]c(/C=C2\C(=O)Nc3ccc(F)cc32)c1C [Sunitinib] + O=C(CCCCCCC(=O)Nc1ccccc1)NO [Vorinostat] (partner 1 µM)
Method in brief: (§1)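 Lung cancer cell lines were pin-tool dosed in 1536-well plates on the day after seeding, with either a lone drug or a fixed anchor-drug dose plus five library-drug doses (not always all listed) in √10 steps. Nuclei were counted on 4× images after 5 days. Relative viability is the ratio of treated-well to vehicle-well nuclei counts, with each value a median of duplicate plates.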

[2] = compound: CCN(CC)CCNC(=O)c1c(C)[nH]c(/C=C2\C(=O)Nc3ccc(F)cc32)c1C [Sunitinib] + O=C(c1cc(Cc2n[nH]c(=O)c3ccccc23)ccc1F)N1CCN(C(=O)C2CC2)CC1 [Olaparib] (partner 8 µM)
Method in brief: as §1

[3] = compound: CCN(CC)CCNC(=O)c1c(C)[nH]c(/C=C2\C(=O)Nc3ccc(F)cc32)c1C [Sunitinib] + C[C@]1(O)C[C@@H](c2nc(-c3ccc4ccc(-c5ccccc5)nc4c3)c3c(N)nccn32)C1 [Linsitinib] (partner 1 µM)
Method in brief: as §1

[4] = compound: CCN(CC)CCNC(=O)c1c(C)[nH]c(/C=C2\C(=O)Nc3ccc(F)cc32)c1C [Sunitinib] + Nc1nc2[nH]cc(CCc3ccc(C(=O)N[C@@H](CCC(=O)O)C(=O)O)cc3)c2c(=O)[nH]1 [Pemetrexed] (partner 0.2 µM)
Method in brief: as §1

Cell Line	relative viability ([1]; first compound 0.02 µM)	relative viability ([1]; first compound 0.06325 µM)	relative viability ([1]; first compound 0.2 µM)	relative viability ([1]; first compound 0.6325 µM)	relative viability ([1]; first compound 2 µM)	relative viability ([2]; first compound 0.02 µM)	relative viability ([2]; first compound 0.06325 µM)	relative viability ([2]; first compound 0.2 µM)	relative viability ([2]; first compound 0.6325 µM)	relative viability ([2]; first compound 2 µM)	relative viability ([3]; first compound 0.02 µM)	relative viability ([3]; first compound 0.06325 µM)	relative viability ([3]; first compound 0.2 µM)	relative viability ([3]; first compound 0.6325 µM)	relative viability ([3]; first compound 2 µM)	relative viability ([4]; first compound 0.02 µM)	relative viability ([4]; first compound 0.06325 µM)	relative viability ([4]; first compound 0.2 µM)	relative viability ([4]; first compound 0.6325 µM)	relative viability ([4]; first compound 2 µM)
201T	0.932	1.05	1.02	0.954	0.965	0.843	0.845	0.855	0.865	0.853	1	0.941	1.06	1.09	1.04	0.32	0.325	0.356	0.301	0.355
A-427	0.871	0.915	0.912	0.887	0.898	0.701	0.721	0.832	0.848	0.771	1.1	1.18	1.12	1.15	1.12	0.993	1	0.95	0.997	1.01
ABC-1	1.22	1.38	1.05	1.09	–	0.728	0.919	0.868	1.06	0.966	1.03	0.766	0.855	0.923	0.718	–	–	–	–	–
BEN	0.535	0.637	0.571	0.574	0.533	1.02	1.03	1.14	1.08	0.956	–	0.862	1.07	0.951	0.896	0.812	0.862	–	0.742	0.74
CAL-12T	0.541	0.864	1.04	0.902	0.682	0.718	0.755	0.791	0.817	0.772	0.807	0.82	1.2	1.06	1.01	1.06	1.17	1.17	–	1.34
COR-L23	0.457	0.515	0.484	0.464	0.503	0.317	0.349	0.361	0.385	0.351	0.902	1.1	1	1.02	0.999	0.207	0.196	0.196	0.199	0.216
COR-L 105	0.856	0.646	0.817	0.797	0.744	0.591	0.695	0.881	0.651	0.837	1.02	0.994	0.839	1.15	1.03	1.08	1.01	1.1	1.14	1.22
Calu-6	–	–	–	–	–	0.575	0.57	0.598	0.571	0.614	0.874	1.08	–	1.08	0.981	–	–	–	–	–
ChaGo-K-1	0.736	0.831	0.887	0.773	0.746	0.483	0.466	0.414	0.435	0.441	–	–	–	–	–	0.263	0.268	0.258	0.255	0.258
EBC-1	–	–	–	–	–	0.758	0.689	0.727	0.726	0.739	0.9	0.972	1.01	0.993	0.957	–	–	–	–	–
EKVX	0.802	–	0.882	0.806	0.728	0.941	0.991	0.952	0.957	0.97	1.07	1.04	1.18	1.12	1.06	0.373	0.383	0.425	0.416	0.406
EMC-BAC-2	0.458	0.464	0.506	0.506	0.505	0.462	0.52	0.539	0.529	0.582	0.769	0.817	0.896	0.865	0.778	0.427	0.426	0.472	0.481	0.464
EPLC-272H	0.512	0.479	0.424	0.397	0.555	0.764	0.998	1.01	0.746	0.388	1.27	1.1	1.15	1.09	0.93	0.39	0.298	0.314	0.42	0.363
H3255	0.672	0.573	0.835	0.827	0.822	0.541	0.605	0.6	0.593	0.56	0.884	1.02	–	1.01	1.03	0.557	0.558	0.567	0.552	0.612
HARA	0.525	0.518	0.687	0.441	0.553	0.718	0.966	0.801	0.786	0.7	0.948	0.978	1.14	0.956	0.858	0.26	0.274	0.241	0.222	0.263
HCC-15	0.905	0.93	0.984	0.789	0.85	0.762	0.742	0.807	0.768	0.625	0.803	0.838	0.928	0.902	0.86	0.236	0.228	0.222	0.204	0.248
HCC-44	1.15	1.09	1.15	1.09	1.14	0.958	0.97	0.979	1	1.05	0.641	0.757	0.772	0.665	0.727	0.615	0.607	0.676	0.68	0.692
HCC-78	0.427	0.418	0.531	0.481	0.465	0.765	0.82	0.865	0.866	0.891	0.472	–	0.501	–	0.565	0.914	0.927	0.949	0.93	–
HCC-366	0.326	0.388	0.487	0.442	0.468	0.343	0.355	0.482	0.449	0.42	0.512	0.619	0.606	0.628	0.571	0.154	0.168	0.168	0.194	0.497

Cell Line	relative viability ([1]; first compound 0.02 µM)	relative viability ([1]; first compound 0.06325 µM)	relative viability ([1]; first compound 0.2 µM)	relative viability ([1]; first compound 0.6325 µM)	relative viability ([1]; first compound 2 µM)	relative viability ([2]; first compound 0.02 µM)	relative viability ([2]; first compound 0.06325 µM)	relative viability ([2]; first compound 0.2 µM)	relative viability ([2]; first compound 0.6325 µM)	relative viability ([2]; first compound 2 µM)	relative viability ([3]; first compound 0.02 µM)	relative viability ([3]; first compound 0.06325 µM)	relative viability ([3]; first compound 0.2 µM)	relative viability ([3]; first compound 0.6325 µM)	relative viability ([3]; first compound 2 µM)	relative viability ([4]; first compound 0.02 µM)	relative viability ([4]; first compound 0.06325 µM)	relative viability ([4]; first compound 0.2 µM)	relative viability ([4]; first compound 0.6325 µM)	relative viability ([4]; first compound 2 µM)
HCC-827	0.843	0.861	0.668	0.875	0.714	0.722	0.696	0.622	0.648	0.597	0.971	0.887	0.98	1	0.936	0.265	0.29	0.28	0.584	0.289
HOP-62	0.675	0.876	0.744	0.761	0.838	0.453	0.374	0.449	0.472	0.63	0.968	1.23	1.18	1.1	1.11	0.33	0.366	0.337	0.369	0.417
LC-2-ad	0.673	0.767	0.774	0.799	0.698	0.68	0.746	0.749	0.729	0.825	0.839	0.918	0.89	0.844	0.677	0.266	0.275	0.291	0.303	0.26
LCLC-97TM1	0.638	0.943	0.713	0.887	0.768	0.377	0.401	0.548	0.477	0.442	0.176	0.197	–	0.213	0.191	0.167	0.198	0.164	0.163	0.212
LCLC-103H	0.778	0.918	0.868	0.827	0.867	0.69	0.839	0.787	0.75	0.817	0.987	1.02	1.11	1.1	1.08	0.452	0.443	0.487	0.442	0.445
LK-2	0.259	0.391	0.311	0.253	0.413	0.668	0.82	0.926	0.617	0.6	0.504	0.516	0.658	0.712	0.637	0.266	0.335	0.31	0.254	0.292
LOU-NH91	0.928	0.96	0.997	1	0.884	0.899	0.903	1.01	1.05	0.875	–	0.983	0.959	0.95	0.87	0.388	0.38	0.389	0.382	0.448
LU99A	0.468	0.625	0.514	0.516	0.44	0.267	0.27	0.271	0.321	0.295	0.455	0.574	0.602	0.652	0.474	0.199	0.185	0.198	0.151	0.162
LXF-289	0.688	0.857	0.824	0.779	0.752	1.03	1.06	1.2	1.11	1.12	0.947	0.978	1.02	0.988	–	0.882	0.972	0.925	0.945	0.874
NCI-H727	1.12	1.22	1.18	1.18	1.25	0.747	0.649	0.717	0.593	0.778	0.146	0.363	0.239	0.311	0.292	–	–	–	–	–
NCI-H1299	–	–	–	–	–	0.935	0.977	0.998	1.02	0.991	0.922	–	1.05	0.998	1.05	–	–	–	–	–
NCI-H1563	–	–	–	–	–	–	–	–	–	–	1.27	1.23	1.23	1.21	1.22	0.759	0.727	0.782	0.721	0.852
NCI-H1648	0.58	0.465	0.356	0.338	0.442	1.11	0.583	–	0.751	0.707	–	–	–	–	–	0.897	0.737	0.898	0.704	0.835
NCI-H1650	0.558	0.606	0.752	0.659	0.582	0.744	0.742	0.822	0.791	0.738	–	–	–	–	–	0.399	0.307	0.411	0.346	0.448
NCI-H1703	–	–	–	–	–	0.229	0.267	0.251	0.154	0.157	0.51	0.18	0.257	0.174	0.17	–	–	–	–	–
NCI-H1792	–	–	–	–	–	0.491	0.371	0.98	0.404	0.384	0.556	0.479	0.419	0.511	0.561	0.619	0.942	1.26	1.21	0.775
NCI-H2170	0.78	0.826	0.927	0.842	0.709	0.593	0.571	0.651	0.605	0.535	–	–	–	–	–	0.259	0.274	0.432	0.291	0.275
NCI-H2342	0.622	0.918	0.794	0.724	0.889	0.48	0.456	0.527	0.475	0.414	–	–	–	–	–	0.731	0.821	0.808	0.739	0.843
